Measured values reported in PMC6934184, “Selective DNA-PKcs inhibition extends the therapeutic index of localized radiotherapy and chemotherapy” (The Journal of Clinical Investigation, 2019).

Molecular target: T1, ULK3 (Homo sapiens, UniProt Q6PHR2)
T1 construct: purchased Thermo Fisher Scientific (Life Technologies) SelectScreen
Test: SelectScreen LanthaScreen
Format: binding
Conditions: 1 µM
Procedure, shortened: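 Percent values come from Thermo SelectScreen profiling of NU5455, combining activity and binding assays. CSF1R was run in Z'LYTE format at Km app ATP, and CAMK1 in Adapta format with ATP listed at 10.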

T1 sequence (Q6PHR2 whole entry): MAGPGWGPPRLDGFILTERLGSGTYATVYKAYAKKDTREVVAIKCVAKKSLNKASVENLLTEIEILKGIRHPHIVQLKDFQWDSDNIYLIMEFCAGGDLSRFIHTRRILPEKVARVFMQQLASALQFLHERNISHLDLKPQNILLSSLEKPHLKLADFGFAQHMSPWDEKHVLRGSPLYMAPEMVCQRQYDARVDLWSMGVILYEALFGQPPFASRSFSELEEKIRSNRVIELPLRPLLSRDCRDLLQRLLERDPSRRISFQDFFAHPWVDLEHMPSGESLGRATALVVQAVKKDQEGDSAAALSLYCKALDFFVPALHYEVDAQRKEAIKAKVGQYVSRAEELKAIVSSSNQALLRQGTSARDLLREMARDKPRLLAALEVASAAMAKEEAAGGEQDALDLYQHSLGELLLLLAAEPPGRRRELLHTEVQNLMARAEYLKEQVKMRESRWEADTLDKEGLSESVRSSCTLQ

## CN(C(=O)CN1CCOCC1)c1ccc2sc3c(-c4cccc5c(=O)cc(N6CC7CCC(C6)O7)oc45)cccc3c2c1 [NU5455]
  % displacement: 4.5%
